Laboratory results as given in PubChem BioAssay AID248 (DTP/NCI, 2004).
Values joined by “and” are separate entries in the source; they are usually repeats but may differ in a detail not shown here. Equal values may be shown once. Toxic doses and inconclusive results are not listed. No stated cut-off is given here; in the data, active means T/C of 150% or more; inactive means T/C below 125%. Peptide text beside a SMILES is read from it. * marks the point of attachment. Cbz = O=C(OCc1ccccc1)*; CH2Cl = ClC*

Test system: L1210 leukemia ip in BDF1 mice, survival T/C
Test: NCI In Vivo Anticancer Drug Screen. Data for tumor model L1210 Leukemia (intraperitoneal) in B6D2F1 (BDF1) mice
Settings: endpoint: mean survival time, higher = longer survival
Summary of the method: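 In this screen, tumor-bearing mice given compound are compared to those given vehicle, and their survival values are reported as a treated-to-control quotient.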

[1] = dose: 100.0 mg/kg/injection, schedule: Q01DX001 (ip), vehicle: other
[2] = dose: 200.0 mg/kg/injection, schedule: Q01DX001 (ip), vehicle: other
[3] = dose: 400.0 mg/kg/injection, schedule: Q01DX001 (ip), vehicle: other
[4] = dose: 100.0 mg/kg/injection, schedule: Q04DX003 (ip), vehicle: Klucel (hydroxypropylcellulose) (HPC)
[5] = dose: 200.0 mg/kg/injection, schedule: Q04DX003 (ip), vehicle: Klucel (hydroxypropylcellulose) (HPC)
[6] = dose: 400.0 mg/kg/injection, schedule: Q04DX003 (ip), vehicle: Klucel (hydroxypropylcellulose) (HPC)
[7] = dose: 100.0 mg/kg/injection, schedule: Q01DX009 (ip), vehicle: Klucel (hydroxypropylcellulose) (HPC)
[8] = dose: 200.0 mg/kg/injection, schedule: Q01DX009 (ip), vehicle: Klucel (hydroxypropylcellulose) (HPC)
[9] = dose: 100.0 mg/kg/injection, schedule: Q01DX009 (ip), vehicle: saline
[10] = dose: 200.0 mg/kg/injection, schedule: Q01DX009 (ip), vehicle: saline
[11] = dose: 400.0 mg/kg/injection, schedule: Q01DX009 (ip), vehicle: saline
[12] = dose: 100.0 mg/kg/injection, schedule: Q01DX001 (ip), vehicle: saline
[13] = dose: 200.0 mg/kg/injection, schedule: Q01DX001 (ip), vehicle: saline
[14] = dose: 400.0 mg/kg/injection, schedule: Q01DX001 (ip), vehicle: saline
[15] = dose: 100.0 mg/kg/injection, schedule: Q01DX001 (ip), vehicle: Klucel (hydroxypropylcellulose) (HPC)
[16] = dose: 200.0 mg/kg/injection, schedule: Q01DX001 (ip), vehicle: Klucel (hydroxypropylcellulose) (HPC)
[17] = dose: 400.0 mg/kg/injection, schedule: Q01DX001 (ip), vehicle: Klucel (hydroxypropylcellulose) (HPC)

Measured: T/C

Cc1cc(Cl)c(Cl)cc1NC(=O)c1ccccc1F
inactive: [1] 94 % of control | dose: 100.0 mg/kg/injection, schedule: Q01DX009 (ip), vehicle: other 107 % of control and 92 % of control | dose: 100.0 mg/kg/injection, schedule: Q04DX002 (ip), vehicle: other 98 % of control and 102 % of control | dose: 100.0 mg/kg/injection, schedule: Q04DX003 (ip), vehicle: other 98 % of control | [2] 92 % of control | dose: 200.0 mg/kg/injection, schedule: Q01DX009 (ip), vehicle: other 90 % of control and 92 % of control | dose: 200.0 mg/kg/injection, schedule: Q04DX002 (ip), vehicle: other 105 % of control and 91 % of control | dose: 200.0 mg/kg/injection, schedule: Q04DX003 (ip), vehicle: other 100 % of control | [3] 91 % of control | dose: 400.0 mg/kg/injection, schedule: Q01DX009 (ip), vehicle: other 90 % of control and 92 % of control | dose: 400.0 mg/kg/injection, schedule: Q04DX002 (ip), vehicle: other 100 % of control and 102 % of control | dose: 400.0 mg/kg/injection, schedule: Q04DX003 (ip), vehicle: other 96 % of control

CN(C)c1ccc2c(c1)Cc1cc(N3C(=O)C=CC3=O)ccc1-2
inactive: [4] 101 % of control | [5] 101 % of control | [6] 95 % of control

[Cl][Ho]([Cl])[Cl]
inactive: dose: 100.0 mg/kg/injection, schedule: Q01DX005 (ip), vehicle: Klucel (hydroxypropylcellulose) (HPC) 94 % of control | [7] 98 % of control | dose: 100.0 mg/kg/injection, schedule: Q04DX002 (ip), vehicle: Klucel (hydroxypropylcellulose) (HPC) 88 % of control | dose: 200.0 mg/kg/injection, schedule: Q01DX005 (ip), vehicle: Klucel (hydroxypropylcellulose) (HPC) 98 % of control | [8] 95 % of control | dose: 200.0 mg/kg/injection, schedule: Q04DX002 (ip), vehicle: Klucel (hydroxypropylcellulose) (HPC) 98 % of control | dose: 400.0 mg/kg/injection, schedule: Q01DX005 (ip), vehicle: Klucel (hydroxypropylcellulose) (HPC) 88 % of control | dose: 400.0 mg/kg/injection, schedule: Q04DX002 (ip), vehicle: Klucel (hydroxypropylcellulose) (HPC) 109 % of control

CCCCC(C=NCC(CCCC)(CCN1CCOCC1)c1cccc2ccccc12)(CCN1CCOCC1)c1cccc2ccccc12 (centres undefined)
inactive: [9] 100 % of control | [10] 96 % of control | [11] 88 % of control

COc1ccc(NCC(O)CN2CCCC2)cc1 (centres undefined)
inactive: [12] 112 % of control | [13] 104 % of control

O=C(O)c1c(F)c(F)c(-c2c(F)c(F)c(F)c(F)c2F)c(F)c1F
inactive: dose: 100.0 mg/kg/injection, schedule: Q01DX001 (ip), vehicle: saline with Tween-80 86 % of control | dose: 200.0 mg/kg/injection, schedule: Q01DX001 (ip), vehicle: saline with Tween-80 91 % of control

CN(C(=O)OCc1ccccc1)c1ccc(C(=O)O)cc1
inactive: [12] 97 % of control | [13] 94 % of control | [14] 97 % of control

N#CC1(Nc2cccc(C(F)(F)F)c2)CCCCC1
inactive: [7] 94 % of control | [8] 105 % of control | dose: 400.0 mg/kg/injection, schedule: Q01DX009 (ip), vehicle: Klucel (hydroxypropylcellulose) (HPC) 100 % of control

CC(C)CC(NC(=O)OCc1ccccc1)C(=O)NC(Cc1ccccc1)C(=O)CCl (stereo not drawn) (Cbz-Leu-Phe-CH2Cl; configuration not given here)
inactive: dose: 25.0 mg/kg/injection, schedule: Q04DX003 (ip), vehicle: Klucel (hydroxypropylcellulose) (HPC) 104 % of control | dose: 50.0 mg/kg/injection, schedule: Q04DX003 (ip), vehicle: Klucel (hydroxypropylcellulose) (HPC) 102 % of control | [15] 90 % of control | [4] 96 % of control and 89 % of control | [16] 88 % of control | [17] 103 % of control

Cc1ccc(C2OCC(CCl)O2)cc1 (centres undefined)
inactive: dose: 222.0 mg/kg/injection, schedule: Q01DX Z (ip), vehicle: methylcellulose (MC) 108 % of control | dose: 333.0 mg/kg/injection, schedule: Q01DX Z (ip), vehicle: methylcellulose (MC) 96 % of control | dose: 500.0 mg/kg/injection, schedule: Q01DX Z (ip), vehicle: methylcellulose (MC) 102 % of control

CC(C)C/C=N/NC(=O)Cc1ccccc1
inactive: [1] 101 % of control | [2] 94 % of control | [3] 101 % of control

CC(C)(C)P(=O)(O)O
inactive: dose: 100.0 mg/kg/injection, schedule: Q01DX009 (ip), vehicle: saline with Tween-80 95 % of control

CCC(C(=O)c1ccccc1)C(O)(C(F)(F)F)C(F)(F)F (centres undefined)
inactive: [15] 96 % of control | [4] 94 % of control | [16] 106 % of control | [5] 104 % of control | [17] 95 % of control | [6] 104 % of control

CC#CCOCC1CNC(=O)O1 (centres undefined)
inactive: dose: 25.0 mg/kg/injection, schedule: Q01DX009 (ip), vehicle: saline 98 % of control | dose: 25.0 mg/kg/injection, schedule: Q04DX003 (ip), vehicle: saline 105 % of control | dose: 50.0 mg/kg/injection, schedule: Q01DX009 (ip), vehicle: saline 93 % of control | dose: 50.0 mg/kg/injection, schedule: Q04DX003 (ip), vehicle: saline 97 % of control | [9] 93 % of control | dose: 100.0 mg/kg/injection, schedule: Q04DX003 (ip), vehicle: saline 97 % of control | [10] 102 % of control | dose: 200.0 mg/kg/injection, schedule: Q04DX003 (ip), vehicle: saline 103 % of control | [11] 104 % of control | dose: 400.0 mg/kg/injection, schedule: Q04DX003 (ip), vehicle: saline 103 % of control

Nc1nc(N)nc(CCc2nc(N)nc(N)n2)n1
inactive: dose: 50.0 mg/kg/injection, schedule: Q01DX001 (ip), vehicle: carboxymethylcellulose (CMC) 95 % of control | dose: 100.0 mg/kg/injection, schedule: Q01DX001 (ip), vehicle: carboxymethylcellulose (CMC) 90 % of control | dose: 200.0 mg/kg/injection, schedule: Q01DX001 (ip), vehicle: carboxymethylcellulose (CMC) 87 % of control | dose: 400.0 mg/kg/injection, schedule: Q01DX001 (ip), vehicle: carboxymethylcellulose (CMC) 92 % of control

O/N=C1\CCCc2sccc21
inactive: dose: 100.0 mg/kg/injection, schedule: Q01DX001 (ip), vehicle: steriod suspending solution 114 % of control | dose: 200.0 mg/kg/injection, schedule: Q01DX001 (ip), vehicle: steriod suspending solution 98 % of control | dose: 400.0 mg/kg/injection, schedule: Q01DX001 (ip), vehicle: steriod suspending solution 98 % of control

CC1COCCCCCC(=O)C1 (centres undefined)
inactive: [12] 91 % of control | [13] 107 % of control | [14] 107 % of control

CS(=O)(=O)OCCN(CCOS(C)(=O)=O)c1ccc([N+](=O)[O-])c(C(F)(F)F)c1
inactive: dose: 50.0 mg/kg/injection, schedule: Q01DX001 (ip), vehicle: saline 94 % of control | [12] 96 % of control | [13] 96 % of control | [14] 94 % of control
